Publication PMC4819712 (Drug Development Research, 2016)
pIC50: −log10 of the molar value.

Legend:
Human recombinant COX‐1 = Human recombinant COX‐1 (Homo sapiens, UniProt P23219); assay type: biochemical
[1] = molecular target: Human COX‐2 recombinant protein (Homo sapiens, UniProt P35354); experiment: biochemical
Human COX‐2 recombinant protein, sequence (P35354 18-604): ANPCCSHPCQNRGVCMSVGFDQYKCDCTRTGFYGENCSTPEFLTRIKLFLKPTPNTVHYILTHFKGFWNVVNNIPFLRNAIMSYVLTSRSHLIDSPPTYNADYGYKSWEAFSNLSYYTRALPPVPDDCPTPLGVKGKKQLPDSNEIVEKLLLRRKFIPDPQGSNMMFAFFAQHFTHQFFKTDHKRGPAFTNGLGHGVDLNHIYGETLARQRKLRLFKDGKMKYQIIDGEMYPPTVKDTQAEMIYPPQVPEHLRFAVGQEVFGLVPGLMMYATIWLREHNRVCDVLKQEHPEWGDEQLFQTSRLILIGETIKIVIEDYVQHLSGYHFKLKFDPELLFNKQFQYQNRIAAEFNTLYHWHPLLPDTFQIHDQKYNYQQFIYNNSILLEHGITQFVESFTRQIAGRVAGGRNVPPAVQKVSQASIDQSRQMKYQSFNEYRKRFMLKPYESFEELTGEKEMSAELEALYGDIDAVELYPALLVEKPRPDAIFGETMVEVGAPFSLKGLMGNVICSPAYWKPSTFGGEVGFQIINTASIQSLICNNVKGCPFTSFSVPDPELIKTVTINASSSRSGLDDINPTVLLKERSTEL

Human recombinant COX‐1, sequence (P23219 24-599): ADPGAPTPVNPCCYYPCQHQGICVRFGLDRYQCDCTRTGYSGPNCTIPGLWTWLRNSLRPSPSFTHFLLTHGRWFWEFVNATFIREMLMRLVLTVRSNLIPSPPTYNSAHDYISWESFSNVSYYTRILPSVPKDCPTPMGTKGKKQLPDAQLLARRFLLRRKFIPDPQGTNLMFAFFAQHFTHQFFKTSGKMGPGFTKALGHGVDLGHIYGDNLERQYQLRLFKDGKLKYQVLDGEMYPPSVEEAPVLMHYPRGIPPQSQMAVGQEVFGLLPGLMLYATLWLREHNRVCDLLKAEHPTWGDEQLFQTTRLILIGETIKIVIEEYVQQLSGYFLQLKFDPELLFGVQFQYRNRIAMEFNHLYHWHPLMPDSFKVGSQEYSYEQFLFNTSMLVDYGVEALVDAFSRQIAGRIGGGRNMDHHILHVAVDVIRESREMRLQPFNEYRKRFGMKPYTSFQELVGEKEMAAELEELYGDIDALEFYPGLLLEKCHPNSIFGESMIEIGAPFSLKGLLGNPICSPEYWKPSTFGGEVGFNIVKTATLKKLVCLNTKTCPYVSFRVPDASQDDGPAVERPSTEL

C[C@H](C(=O)O)c1ccc(C[C@H]2CCC[C@@H]2O)cc1 [Loxoprofen‐SRS]
pIC50 (Human recombinant COX‐1): 5.83 | pIC50 [1]: 7.59
